For data set [1] the following is noted: male, ddY, mouse, in vivo, 2 min.
Procedure: Animals were decapitated at 2, 10, 30 or 60 min after the injection, and the blood was collected. Then, major organs were removed, and weights and radioactivities thereof were measured.
In vivo radioactivity distribution experiments of ^125I-labeled aurone derivatives were performed using 5-week-old normal mice.
The target of another data set is T1, Ab(1-42) aggregates (Homo sapiens, UniProt P05067).
T1 construct: Ab(1-42) was dissolved in 10 mM phosphate buffer containing 1 mM EDTA (pH 7.4)
The data set is described as follows: Binding inhibition experiment using Ab(1-42) aggregates, inhibition constants (Ki), radioligand [125I](Z)-2-(4-aminobenzylidene)-5-iodobenzofuran-3(2H)-one (Table 14). The conditions noted are these: Aβ42 aggregates. As to the method:
Ab(1-42) was dissolved in 10 mM phosphate buffer containing 1 mM EDTA (pH 7.4) to give a concentration of 0.25 mg/mL, and the mixture was incubated at 37° C. for 42 h to thereby prepare Ab(1-42) aggregates.
[…] of 10% EtOH solution, […] of a solution of [^125I](Z)-2-(4-aminobenzylidene)-5-iodobenzofuran-3(2H)-one in 10% ethanol, and […] of a sample solution at various concentrations ([…]) were mixed. Finally, […] of Ab(1-42) aggregate solution was added thereto, and the mixture was allowed to stand at room temperature for 3 h. Ab(1-42) aggregate-bound compounds and nonbound compounds were separated with a Brandel M-24R cell harvester using a Whatman GF/B filter. Radioactivities remaining on the filter were measured with a γ-counter, and inhibition curves were created using Graph Pad Prism 4.0 to calculate inhibition constants (Ki values).
In order to calculate inhibition constants (Ki values) for various aurone derivatives synthesized, binding inhibition experiments were performed using [^125I](Z)-2-(4-aminobenzylidene)-5-iodobenzofuran-3(2H)-one as a radioactive ligand. […] Thus, aurone derivatives have shown a high binding property to amyloid aggregates. No difference in binding property resulting from the length of introduced ethyleneoxy chains was observed.

The test system of data set [2] is senile plaques on brain sections from Tg2576 mice. The data set is described as follows: Fluorescence staining and immunostaining on brain sections from transgenic mice. Particulars: Tg2576 mouse brain sections, FIG. 9. The class given is binding. As to the method:
As Alzheimer's disease model mouse, Tg2576 mice (20-month-old) were used. Brain tissues were removed and frozen in carboxymethyl cellulose (4%). Then, a series of sections 10 μm thick were prepared therefrom. The thus prepared sections were reacted with a ligand (a solution of Compound 26 and thioflavin in 50% EtOH) for 3 min. Then, the sections were washed with 50% EtOH (1 min×twice) and observed under a fluorescence microscope. Further, using adjacent sections, immunostaining was performed by conventional methods with anti-amyloid (3(1-42) antibody.
Fluorescence staining was performed on brain sections from Alzheimer's disease model mouse (Tg2576) utilizing the fluorescence property of Compound 26 (FIG. 9).

For data set [3], the system named is senile plaque amyloid on hippocampal sections from Alzheimer's disease patients. Briefly: In vitro autoradiography and immunostaining on brain sections from Alzheimer's disease patients (Example 2). The class given is binding, human. Particulars: AD patient brain sections, FIG. 10. As to the method:
Hippocampal sections (5 μm thick) from Altzheimer's disease patients were dewaxed by washing with xylene ((5 min×2) and with 100% EtOH, 100% EtOH, 95% EtOH, 85% EtOH and 70% EtOH (1 min×1 for each). After air-drying, the sections were reacted with a ligand (40% EtOH solution) for 1 h. Then, the sections were washed with saturated aqueous lithium carbonate solution in 40% EtOH (2 min×2), with 40% EtOH (2 min×2) and with water (30 sec×1), and immobilized on imaging plates for 24 h. Subsequently, the sections were analyzed with BAS2500. Further, using adjacent sections, immunostaining was performed by conventional methods with anti-amyloid β(1-42) antibody.
Autoradiography was performed on brain sections from Altzheimer's disease patients with [^125I]26 (FIG. 10).

Results on three compounds are retold here after patent publication US20100003191A1, “AURONE DERIVATIVE-CONTAINING COMPOSITION FOR DIAGNOSIS” (NAGASAKI UNIVERSITY, priority 2006, published 2010).

T1 sequence (P05067 672-713 limits assumed): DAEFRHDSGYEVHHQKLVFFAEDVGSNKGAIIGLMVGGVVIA

Usually Ki stands for the dissociation constant of the complex between target and ligand, obtained from inhibition or displacement. The low end stands for higher affinity, the high end for lower affinity. On to `O=C1/C(=C/c2ccc(OCCO)cc2)Oc2ccc(I)cc21` [Compound 26, (Z)-2-(4-(2-hydroxyethoxy)benzylidene)-5-iodobenzofuran-3(2H)-one], for which the “migration of radioactivity to the brain” value in data set [1] is listed as 2.4-4.5 % ID/g. The compound also gave an inhibition constant (Ki) on Ab(1-42) aggregates of 1.05 ± 0.06 nM. Moreover, in data set [2], the “fluorescence image on brain sections” value is “consistent with the fluorescence image of thioflavin S on adjacent section and the immunostaining image of anti-amyloid antibody on adjacent section”. In data set [3], the “radioactivity in autoradiography vs immunostaining” value is “observed at the positive site of immunostaining with anti-amyloid antibody”.
`O=C1/C(=C/c2ccc(OCCOCCO)cc2)Oc2ccc(I)cc21` [Compound 27, (Z)-2-(4-(2-(2-hydroxyethoxy)ethoxy)benzylidene)-5-iodobenzofuran-3(2H)-one]: in data set [1], the “migration of radioactivity to the brain” value is on record as 2.4-4.5 % ID/g. This compound gave a Ki at Ab(1-42) aggregates of 3.36 ± 0.29 nM.
The corresponding values for `O=C1/C(=C/c2ccc(OCCOCCOCCO)cc2)Oc2ccc(I)cc21` [Compound 28, (Z)-2-(4-(2-(2-(2-hydroxyethoxy)ethoxy)ethoxy)benzylidene)-5-iodobenzofuran-3(2H)-one] are 2.4-4.5 % ID/g and 2.56 ± 0.31 nM.
